Consider 20 compounds from patent publication US20150299120A1, “Spirohydantoin compounds and their use as selective androgen receptor modulators” (NOVARTIS AG, priority 2012, published 2015).

Where two headings read alike, the source gives them in different places.

Data set [1] concerns the target T1, androgen receptor (AR) (Homo sapiens, UniProt P10275).
T1 construct: transfecting C2C12 cells with a plasmid containing full-length AR; expressed in transfected cells; host or cells: mouse myoblastic C2C12 cells (ATCC CRL-1772), transiently transfected with AR-FL in pcDNA 3.1(+)
T1 sequence (P10275 1-920): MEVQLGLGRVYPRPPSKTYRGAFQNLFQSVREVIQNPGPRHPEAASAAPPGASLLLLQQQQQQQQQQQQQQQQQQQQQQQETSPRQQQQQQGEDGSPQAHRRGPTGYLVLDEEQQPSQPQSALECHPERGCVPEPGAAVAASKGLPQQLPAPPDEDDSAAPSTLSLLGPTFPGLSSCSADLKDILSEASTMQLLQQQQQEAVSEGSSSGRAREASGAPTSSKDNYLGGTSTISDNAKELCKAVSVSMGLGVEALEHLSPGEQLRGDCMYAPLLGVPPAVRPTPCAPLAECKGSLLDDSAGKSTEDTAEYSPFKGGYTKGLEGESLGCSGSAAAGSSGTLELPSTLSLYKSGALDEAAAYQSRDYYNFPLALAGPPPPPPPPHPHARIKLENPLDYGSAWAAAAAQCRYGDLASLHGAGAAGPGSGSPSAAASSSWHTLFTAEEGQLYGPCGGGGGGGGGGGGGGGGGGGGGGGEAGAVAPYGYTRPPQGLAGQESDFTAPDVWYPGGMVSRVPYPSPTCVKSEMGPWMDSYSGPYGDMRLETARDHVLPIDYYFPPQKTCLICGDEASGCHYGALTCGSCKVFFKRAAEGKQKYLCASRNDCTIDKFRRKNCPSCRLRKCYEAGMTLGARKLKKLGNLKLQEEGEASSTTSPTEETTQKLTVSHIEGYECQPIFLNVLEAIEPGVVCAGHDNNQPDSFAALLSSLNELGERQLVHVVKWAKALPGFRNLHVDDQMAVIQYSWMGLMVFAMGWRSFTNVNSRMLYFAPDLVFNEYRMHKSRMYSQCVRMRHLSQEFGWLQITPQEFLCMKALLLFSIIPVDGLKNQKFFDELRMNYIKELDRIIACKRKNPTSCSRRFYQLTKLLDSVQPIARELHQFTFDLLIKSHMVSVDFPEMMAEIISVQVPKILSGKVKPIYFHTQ
The experiment in a line: Test 1: androgen receptor transcriptional activation (2XIDR17-luciferase) assay in transfected C2C12 cells. It is filed as cell-based. The conditions noted are these: for Emax: C2C12, C2C12 cells, percentage activity relative to 1 μM DHT, read-out: Biological activity (C2C12 cell) Emax % (converted); for EC50: mouse myoblastic C2C12 cells transfected with full-length AR and 2XIDR17-luciferase; for % Biological activity (C2C12 cell) 100 nM / % Biological activity (C2C12 cell) 5 μM: C2C12 cells, relative to 1 μM DHT; for % Biological activity (C2C12 cell) 100 nM: compound at 100 nM; for % Biological activity (C2C12 cell) 5 μM: compound at 5 μM. The procedure:
A suitable assay to determine the ability of a ligand to transcriptionally activate androgen receptor (AR) is carried out using mouse myoblastic C2C12 cells. The assay involves transfecting C2C12 cells with a plasmid containing full-length AR along with an AR response element linked to luciferase (2XIDR17). The luminescence read-out at the end of the assay is measured using Victor 3 and is a direct measure of the transcriptional activity. The assay has been validated using the reference compound, BMS-564929, for which EC50 values have been reported in a similar set-up.
C2C12 cells were obtained from ATCC (Cat #CRL-1772) and maintained in DMEM modified to contain 4 mM L-glutamine, 4.5 g/L glucose, 1 mM sodium pyruvate and 1.5 g/L sodium bicarbonate and 10% FBS.
AR-FL in pcDNA 3.1(+) and 2XIDR17 in pGL4.26 plasmids prepared using Genelute plasmid miniprep kit from Sigma Cat #PLED35 Steadyglow Luciferase assay system Promega Cat #E2550
• C2C12 cells were seeded in a 96-well plate in DMEM (Dulbecco's Modified Eagle Medium) without phenol red and containing 10% CS-FBS (Charcoal-stripped Fetal Bovine Serum) at 8000 cells/well. • The next day, cells were transfected with an equimolar ratio of (Androgen Receptor-Full length) AR-FL and 2XIDR17-Luciferase at a total plasmid concentration of 200 ng/well using Lipofectamine 2000 following manufacturer's protocol. • For the transfection, 83 ng of AR-FL and 117 ng of 2XIDR17-Luciferase were in 12.5 μl of OptiMEM—Mix A. 0.4 μl of Lipofectamine 2000 was added to 12.5 μl of OptiMEM and incubated for 5 min at room temperature—Mix B. The two mixes A and B were mixed and incubated at room temperature for an additional fifteen minutes. An additional 50 μl of OptiMEM was added, gently mixed and this mixture was added to the cells in the 96-well plate. The above quantities are requirements per well of a 96-well plate. Master mixes were made for the entire plate, with proportional quantity of reagents being used. • 5 h after transfection, compounds were added to the wells in DMEM without phenol red and containing 10% CS-FBS, maintaining a final DMSO concentration of 0.5%. A typical dose response curve starts at 10 μM and includes a 7-point, log dilution, done in triplicates. • After overnight incubation with the compounds, 100 ul of working solution of Steadyglow reagent was added to the wells. • The plates were placed in a shaker for 15 min at the end of which the lysate containing luciferase was transferred to a white flat-bottom plate and read under a luminescence setting in Victor. • Background subtracted counts (Luminescence from DMSO control wells is considered the background) are used to calculate percentage activity, expressed relative to activity with 1 μM (Dihydrotestosterone) DHT (at least two sets of triplicates for 1 μM DHT are included per plate).
The EC50 curves for the compounds for 8 compound concentrations were fitted by the respective function using non-linear least-squares regression in Graphpad Prism 4.0 (Graphpad Software, San Diego, Calif., USA).

The mark [2] stands for this setting: read-out: Biological activity (C2C12 cell) EC50.

As a reminder, the melting point is the temperature, or range, at which the solid turns liquid. In the case of `Cc1c(N2C(=O)N(C)C3(CCCC3O)C2=O)ccc(C#N)c1Cl` (stereo not shown), the melting point was found to be 188 °C.
Take `Cc1c(N2C(=O)OC3(CCCC3O)C2=O)ccc(C#N)c1Cl` (stereo not shown): the melting point was 150 °C.
Broadly, the Emax is the greatest response seen or fitted, relative to the assay's reference. The term EC50 denotes the concentration needed to bring the measured effect to its halfway point. As for `Cc1c(N2C(=O)N(C)C3(CCCC3O)C2O)ccc(C#N)c1Cl` (mixture of isomers) [Example 1.2, 2-chloro-4-(4,6-dihydroxy-1-methyl-2-oxo-1,3-diazaspiro[4.4]nonan-3-yl)-3-methylbenzonitrile], the melting point stood at 179 °C. For the same compound, the Emax in data set [1] is 79%. For the same compound, the EC50 in data set [1] (setting [2]) was 930 nM.
Turning to `Cc1c(N2C(=O)N(C)C3(CCCC3=O)C2=O)ccc(C#N)c1Cl` (racemic) [Example 1.1, 2-chloro-3-methyl-4-(1-methyl-2,4,6-trioxo-1,3-diazaspiro[4.4]nonan-3-yl)benzonitrile], the melting point was found to be 161 °C. Further, the maximum response (Emax) in data set [1] is 60%. Further, the EC50 in data set [1] (setting [2]) turned out to be 847 nM.
`Cc1c(N2C(=O)N(C)C3(CCC(F)C3)C2=O)ccc(C#N)c1Cl` (single isomer, unassigned) yielded a melting point of 162 °C.
`Cc1c(N2C(=O)N(C)C3(CCCC3CO)C2=O)ccc(C#N)c1Cl` (stereo not shown) [Example 1.6, 2-chloro-4-(6-(hydroxymethyl)-1-methyl-2,4-dioxo-1,3-diazaspiro[4.4]nonan-3-yl)-3-methylbenzonitrile] showed a melting point of 157 °C. Moreover, in data set [1], the “% Biological activity (C2C12 cell) 100 nM” value was 28% and the “% Biological activity (C2C12 cell) 5 μM” value was determined as 75%.
The compound `Cc1c(N2C(=O)N(C)C3(CCCC3)C2=O)ccc(C#N)c1Cl` [Example 3.0, 2-chloro-3-methyl-4-(1-methyl-2,4-dioxo-1,3-diazaspiro[4.4]nonan-3-yl)benzonitrile] had a melting point of 154 °C. In addition, the Emax in data set [1] was 100%. The half-maximal effective concentration (EC50) in data set [1] (setting [2]) turned out to be 0.41 nM.
Turning to `COCCN1C(=O)N(c2ccc(C#N)c(Cl)c2C)C(=O)C12CCCC2` [Example 3.1, 2-chloro-4-(1-(2-methoxyethyl)-2,4-dioxo-1,3-diazaspiro[4.4]nonan-3-yl)-3-methylbenzonitrile], the melting point is 115 °C. For the same compound, in data set [1], the maximal effect (Emax) is 96%. Moreover, the concentration giving a half-maximal response (EC50) in data set [1] (setting [2]) was found to be 105 nM.
For the compound `CCN1C(=O)N(c2ccc(C#N)c(Cl)c2C)C(=O)C12CCCC2` [Example 3.2, 2-chloro-4-(1-ethyl-2,4-dioxo-1,3-diazaspiro[4.4]nonan-3-yl)-3-methylbenzonitrile], the melting point turned out to be 94 °C. The maximum response (Emax) in data set [1] was 83%. For the same compound, the EC50 in data set [1] (setting [2]) amounted to 23.5 nM.
Consider `Cc1c(N2C(=O)N(C)C3(CCC(=O)C3)C2=O)ccc(C#N)c1Cl` (stereo not shown) [Example 6.2, 2-chloro-3-methyl-4-(1-methyl-2,4,7-trioxo-1,3-diazaspiro[4.4]nonan-3-yl)benzonitrile], for which the melting point came out at 219 °C. Besides, in data set [1], the “% Biological activity (C2C12 cell) 100 nM” value was found to be 9% and the “% Biological activity (C2C12 cell) 5 μM” value turned out to be 29%.
In turn, `Cc1c(N2C(=O)N(C)C3(CCC(F)(F)C3)C2=O)ccc(C#N)c1Cl` (stereo not shown) [Example 6.3, 2-chloro-4-(7,7-difluoro-1-methyl-2,4-dioxo-1,3-diazaspiro[4.4]nonan-3-yl)-3-methylbenzonitrile] yielded a melting point of 184 °C. Besides, in data set [1], the Emax is 63%. In addition, in data set [1] (setting [2]), the EC50 amounted to 14.9 nM.
On to `Cc1c(N2C(=N)C3(CCCC3)N(C)C2=O)ccc(C#N)c1Cl` [Example 7.0, 2-chloro-4-(4-imino-1-methyl-2-oxo-1,3-diazaspiro[4.4]nonan-3-yl)-3-methylbenzonitrile], for which the melting point is 199 °C. Also, in data set [1], the Emax is 53%. In addition, the EC50 in data set [1] (setting [2]) came out at 103 nM.
Consider `Cc1ncc(CN2C(=O)N(c3ccc(C#N)c(Cl)c3C)C(=O)C23CCCC3)o1` [Example 8.10, 2-chloro-3-methyl-4-(1-((2-methyloxazol-5-yl)methyl)-2,4-dioxo-1,3-diazaspiro[4.4]nonan-3-yl)benzonitrile], for which, in data set [1], the “% Biological activity (C2C12 cell) 100 nM” value is recorded as 20% and the “% Biological activity (C2C12 cell) 5 μM” value is reported as 66%.
`Cc1c(N2C(=O)N(CCF)C3(CCCC3)C2=O)ccc(C#N)c1Cl` [Example 9.0, 2-chloro-4-(1-(2-fluoroethyl)-2,4-dioxo-1,3-diazaspiro[4.4]nonan-3-yl)-3-methylbenzonitrile] displayed an EC50 in data set [1] (Biological activity (C2C12 cell) EC50 (nM)) of 45.4 nM. For the same compound, the Emax in data set [1] is 99%.
For `Cc1c(N2C(=O)N(CCCCCC#N)C3(CCCC3)C2=O)ccc(C#N)c1Cl` [Example 9.1, 2-chloro-4-(1-(5-cyanopentyl)-2,4-dioxo-1,3-diazaspiro[4.4]nonan-3-yl)-3-methylbenzonitrile], the Emax in data set [1] was 108%. Further, the EC50 in data set [1] (setting [2]) amounted to 8.7 ± 2.1 nM.
On the same counts, the results for `Cc1c(N2C(=O)N(CCOCC#N)C3(CCCC3)C2=O)ccc(C#N)c1Cl` [Example 9.3, 2-chloro-4-(1-(2-(cyanomethoxy)ethyl)-2,4-dioxo-1,3-diazaspiro[4.4]nonan-3-yl)-3-methylbenzonitrile] are 91% and 19.9 ± 1.7 nM.
For `Cc1c(N2C(=O)N(CCCC#N)C3(CCCC3)C2=O)ccc(C#N)c1Cl` [Example 9.4, 2-chloro-4-(1-(3-cyanopropyl)-2,4-dioxo-1,3-diazaspiro[4.4]nonan-3-yl)-3-methylbenzonitrile] the same measures were 90% and 26.5 nM.
On the same counts, the results for `Cc1c(N2C(=O)N(CCCCC#N)C3(CCCC3)C2=O)ccc(C#N)c1Cl` [Example 9.6, 2-chloro-4-(1-(4-cyanobutyl)-2,4-dioxo-1,3-diazaspiro[4.4]nonan-3-yl)-3-methylbenzonitrile] are 90% and 45 nM.
As to `Cc1c(N2C(=O)N(CCC#N)C3(CCCC3)C2=O)ccc(C#N)c1Cl` [Example 9.8, 2-chloro-4-(1-(2-cyanoethyl)-2,4-dioxo-1,3-diazaspiro[4.4]nonan-3-yl)-3-methylbenzonitrile], in data set [1], the Emax is 85%. The EC50 in data set [1] (setting [2]) came out at 169 ± 82 nM.
Take `Cc1c(N2C(=O)N(CCCF)C3(CCCC3)C2=O)ccc(C#N)c1Cl` [Example 9.9, 2-chloro-4-(1-(3-fluoropropyl)-2,4-dioxo-1,3-diazaspiro[4.4]nonan-3-yl)-3-methylbenzonitrile]: in data set [1], the “% Biological activity (C2C12 cell) 100 nM” value stood at 27% and the “% Biological activity (C2C12 cell) 5 μM” value turned out to be 52%.
